Experimental data reported in patent US6603023B2 (priority 1996, dated 2003).
Several values for one entry are separate records, joined by “and”; a condition that tells them apart may be missing. Equal values may be shown once. Where a name gives a salt, the structure may show the parent alone. Read-outs that look alike come from different tables or passages of the source.

Tests used:
[1] = tested on: Human CCRF-CEM/VBL Xenograft; test: CCRF-CEM/VBL xenograft in scid mice; type: in vivo, CB-17 scid mice; on Average weight change: unit not given here
Human CCRF-CEM Xenograft = test: CCRF-CEM xenograft in scid mice; type: in vivo, CB-17 scid mice
[2] = tested on: CCRF-CEM human T-cell acute lymphoblastic leukemia cell line; test: XTT cytotoxicity (cell growth inhibition), CCRF-CEM
Summary of the method: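 Duplicate 72 h cultures at 5×10^4 cells/mL, 37 °C, 5% CO2; then XTT plus PMS for 4 h; dual-wavelength read at 450/630 nm. Resistant sublines held under their selecting agents.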

[3] = tested on: human mammary carcinoma MX-1 xenograft; settings: for Average Body Weight, Day 7: initial weight, first treatment day; for Note: died (mice died/total): male, athymic nude (nu/nu)
Procedure: DMSO was used as a vehicle for epothilones. Each mouse received ≦40 μL DMSO in all experiments.
Athymic nude mice (nu/nu) were used for MX-1 and MCF-7/Adr human mammary carcinoma xenografts. Mice were obtained from Taconic Laboratory Animals and Service (Germantown, N.Y.: outbred, Swiss background).

[4] = dose 0.2 i.p. QD d7-10,14,15, day 7
[5] = dose 0.2 i.p. QD d7-10,14,15, day 12
[6] = dose 0.2 i.p. QD d7-10,14,15, day 17
[7] = dose 0.2 i.p. QD d7-10,14,15, day 22
[8] = dose 0.4 i.p. QD d7-10,14,15, day 7
[9] = dose 0.4 i.p. QD d7-10,14,15, day 12
[10] = dose 0.4 i.p. QD d7-10,14,15, day 17
[11] = dose 0.4 i.p. QD d7-10,14,15, day 22
[12] = high doses: dEpoB 25, EpoB 0.6, Taxol 10, Vinblastine 0.4 mg/kg i.p. Q2D from day 7
[13] = low doses: dEpoB 15, EpoB 0.3, Taxol 5, Vinblastine 0.2 mg/kg i.p. Q2D day 7-15

CC[C@]1(O)C[C@@H]2CN(CCc3c([nH]c4ccccc34)[C@@](C(=O)OC)(c3cc4c(cc3OC)N(C)[C@H]3[C@@](O)(C(=O)OC)[C@H](OC(C)=O)[C@]5(CC)C=CCN6CC[C@]43[C@@H]65)C2)C1 [Vinblastine, Vinblastine sulfate]
Average weight change [1, 4]: −0.3
Average tumor volume (control = 1.00) [1, 5]: 0.86
Average weight change [1, 5]: −0.8
Average tumor volume (control = 1.00) [1, 6]: 0.66
Average weight change [1, 6]: −1.4
Average tumor volume (control = 1.00) [1, 7]: 0.67
Average weight change [1, 7]: −0.3
Average weight change [1, 8]: 0
Average tumor volume (control = 1.00) [1, 9]: 1.02
Average weight change [1, 9]: −1.2
Average tumor volume (control = 1.00) [1, 10]: 0.57
Average weight change [1, 10]: −1.8
Average tumor volume (control = 1.00) [1, 11]: 0.62
Average weight change [1, 11]: −0.5
Average weight change (Human CCRF-CEM Xenograft; [4]): +0.2
Average tumor volume (control = 1.00) (Human CCRF-CEM Xenograft; [5]): 0.45
Average weight change (Human CCRF-CEM Xenograft; [5]): −0.8
Average tumor volume (control = 1.00) (Human CCRF-CEM Xenograft; [6]): 0.25
Average weight change (Human CCRF-CEM Xenograft; [6]): −1.5
Average tumor volume (control = 1.00) (Human CCRF-CEM Xenograft; [7]): 0.29
Average weight change (Human CCRF-CEM Xenograft; [7]): −0.3
Average weight change (Human CCRF-CEM Xenograft; [8]): −0.1
Average tumor volume (control = 1.00) (Human CCRF-CEM Xenograft; [9]): 0.31
Average weight change (Human CCRF-CEM Xenograft; [9]): −1.4
Average tumor volume (control = 1.00) (Human CCRF-CEM Xenograft; [10]): 0.27
Average weight change (Human CCRF-CEM Xenograft; [10]): −1.8
Average tumor volume (control = 1.00) (Human CCRF-CEM Xenograft; [11]): 0.30
Average weight change (Human CCRF-CEM Xenograft; [11]): −0.7
IC50 ([2]; Homo sapiens, CCRF-CEM): 630 pM
IC50 ([2]; Homo sapiens, CCRF-CEM, 72 h, Table 1A, XTT): 6300 pM
IC50 ([2]; Homo sapiens, CCRF-CEM, Table 2): 680 pM
IC50 ([2]; Homo sapiens, CCRF-CEM, Table 5, single determinations): 800 pM
IC50 ([2]; Homo sapiens, CCRF-CEM, read-out: IC50 (mean ± of determinations, in parentheses), Table 5): 630 pM
IC50 ([2]; Table 5, single determinations): 600 pM and 500 pM
Average Body Weight Change ([3]; 0.2 mg/kg i.p. Q2Dx5 from day 7, day 11): +0.6 g
Average Body Weight Change ([3]; 0.2 mg/kg i.p. Q2Dx5 from day 7, day 13): +1.4 g
Average Body Weight Change ([3]; 0.2 mg/kg i.p. Q2Dx5 from day 7, day 15): +2.3 g
Average Body Weight Change ([3]; 0.2 mg/kg i.p. Q2Dx5 from day 7, day 17): +2.9 g
Average Body Weight Change ([3]; 0.4 mg/kg i.p. Q2Dx5 from day 7, day 11): +0.8 g
Average Body Weight Change ([3]; 0.4 mg/kg i.p. Q2Dx5 from day 7, day 13): +0.5 g
Average Body Weight Change ([3]; 0.4 mg/kg i.p. Q2Dx5 from day 7, day 15): +1.9 g
Average Body Weight Change ([3]; 0.4 mg/kg i.p. Q2Dx5 from day 7, day 17): +2.1 g
Average Tumor Volume (T/C), Day 11 [3, 12]: 0.80 T/C
Average Tumor Volume (T/C), Day 13 [3, 12]: 0.56 T/C
Average Tumor Volume (T/C), Day 15 [3, 12]: 0.83 T/C
Average Tumor Volume (T/C), Day 17 [3, 12]: 0.88 T/C
Average Body Weight, Day 7 [3, 12]: 26.4 g
Average Body Weight, Day 7 [3, 13]: 25.7 g
Average Tumor Volume (T/C), Day 11 [3, 13]: 0.65 T/C
Average Tumor Volume (T/C), Day 13 [3, 13]: 0.54 T/C
Average Tumor Volume (T/C), Day 15 [3, 13]: 0.56 T/C
Average Tumor Volume (T/C), Day 17 [3, 13]: 0.88 T/C
Note: died (mice died/total) ([3]; mouse, in vivo): 0/7 died
Note: died (mice died/total) ([3]; outbred, Swiss background, mouse, in vivo): 1/7 died
Average Tumor Size (T/C) ([3]; mouse, in vivo): 0.88 and 0.65 and 0.54 and 0.56 and 0.80 and 0.83
